Structures can show the parent of a compound that is named as a salt. Where two headings read alike, the source gives them in different places.
Biological target: hBTK (full-length BTK, 6HIS-tag cleaved) (Homo sapiens (Human), UniProt Q06187)
Assay: BTK enzymatic activity, LANCE TR-FRET assay (Assay Method C)
Assay type: biochemical
Conditions: 50 pM hBTK, 25 μM ATP
[1] = LANCE TR-FRET, class 100-1000 is given as ≧100 nM-<1 μM, read-out: IC50 Btk activity values - Assay Method C
[2] = Table D, Assay Method C (LANCE TR-FRET), read-out: IC50 BTK activity value

hBTK (full-length BTK, 6HIS-tag cleaved), sequence (Q06187 whole entry): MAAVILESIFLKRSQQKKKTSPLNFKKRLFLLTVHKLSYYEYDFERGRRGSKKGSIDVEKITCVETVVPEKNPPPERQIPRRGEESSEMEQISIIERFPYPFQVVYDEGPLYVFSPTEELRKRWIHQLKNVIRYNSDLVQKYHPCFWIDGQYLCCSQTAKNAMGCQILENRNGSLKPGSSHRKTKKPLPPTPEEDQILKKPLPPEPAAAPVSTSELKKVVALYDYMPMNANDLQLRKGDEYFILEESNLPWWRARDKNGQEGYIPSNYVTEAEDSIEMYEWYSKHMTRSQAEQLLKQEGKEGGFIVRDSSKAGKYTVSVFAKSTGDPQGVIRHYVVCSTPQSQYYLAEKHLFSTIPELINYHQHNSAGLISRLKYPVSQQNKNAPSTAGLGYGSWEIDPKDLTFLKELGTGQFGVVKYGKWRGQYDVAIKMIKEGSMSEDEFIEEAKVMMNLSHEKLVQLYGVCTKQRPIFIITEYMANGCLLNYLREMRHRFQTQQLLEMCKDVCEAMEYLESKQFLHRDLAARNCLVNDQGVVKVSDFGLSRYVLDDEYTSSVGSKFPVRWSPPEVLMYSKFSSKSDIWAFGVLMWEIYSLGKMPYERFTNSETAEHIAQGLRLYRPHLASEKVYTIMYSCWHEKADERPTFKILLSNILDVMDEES

IC50 [1] [nM] | IC50 [2] [nM] | SMILES
< 10 | 0.96 | C[C@H]1CC[C@@H](c2nc(-c3ccc(C(=O)Nc4cc(C(F)(F)F)ccn4)c(Cl)c3)c3c(N)nccn23)CN1C(=O)C1(C)COC1 [Example 400, 4-(8-amino-3-{(3R,6S)-6-methyl-1-[(3-methyloxetan-3-yl)carbonyl]piperidin-3-yl}imidazo[1,5-a]pyrazin-1-yl)-2-chloro-N-[4-(trifluoromethyl)pyridin-2-yl]benzamide]
< 10 | – | CCC(=O)N1CCC[C@@H](c2nc(-c3ccc(C(=O)Nc4cc(C(F)(F)F)ccn4)cc3F)c3c(N)nccn23)C1 [Example 487, 4-{8-amino-3-[(3R)-1-propanoylpiperidin-3-yl]imidazo[1,5-a]pyrazin-1-yl}-3-fluoro-N-[4-(trifluoromethyl)pyridin-2-yl]benzamide]
< 10 | 1.33 | CC1(C(=O)N2CCC[C@@H](c3nc(-c4ccc(C(=O)Nc5ccc(C(F)F)cn5)cc4)c4c(N)nccn34)C2)COC1 [Example 355, 4-(8-amino-3-{(3R)-1-[(3-methyloxetan-3-yl)carbonyl]piperidin-3-yl}imidazo[1,5-a]pyrazin-1-yl)-N-[5-(difluoromethyl)pyridin-2-yl]benzamide]
< 10 | – | CCN1CCO[C@@H](c2nc(-c3ccc(C(=O)Nc4cc(C(F)(F)F)ccn4)cc3)c3c(N)ncc(C)n23)C1 [Example 511, 4-{8-amino-3-[(2R)-4-ethylmorpholin-2-yl]-5-methylimidazo[1,5-a]pyrazin-1-yl}-N-[4-(trifluoromethyl)pyridin-2-yl]benzamide]
< 10 | – | Cc1nc(NC(=O)c2ccc(-c3nc([C@@H]4CCCN(C(=O)C5(C)COC5)C4)n4ccnc(N)c34)cc2)sc1C [Example 367, 4-(8-amino-3-{(3R)-1-[(3-methyloxetan-3-yl)carbonyl]piperidin-3-yl}imidazo[1,5-a]pyrazin-1-yl)-N-(4,5-dimethyl-1,3-thiazol-2-yl)benzamide]
< 10 | – | Cc1ccnc(NC(=O)c2ccc(-c3nc([C@H]4CC[C@H](C(F)(F)F)N(C(=O)C5CC5)C4)n4ccnc(N)c34)cc2)c1 [Example 425, 4-{8-amino-3-[(3S,6R)-1-(cyclopropylcarbonyl)-6-(trifluoromethyl)piperidin-3-yl]imidazo[1,5-a]pyrazin-1-yl}-N-(4-methylpyridin-2-yl)benzamide]
< 10 | – | Nc1nccn2c([C@@H]3CCCN(C(=O)c4cnsc4)C3)nc(-c3ccc(C(=O)Nc4cc(C(F)(F)F)ccn4)cc3)c12 [Example 333, 4-{8-amino-3-[(3R)-1-(isothiazol-4-ylcarbonyl)piperidin-3-yl]imidazo[1,5-a]pyrazin-1-yl}-N-[4-(trifluoromethyl)pyridin-2-yl]benzamide]
10 to 100 | – | CCN1CCO[C@H](c2nc(-c3ccc(C(=O)Nc4cc(C(F)(F)F)ccn4)cc3)c3c(N)nccn23)C1 [Example 534, 4-{8-amino-3-[(2S)-4-ethylmorpholin-2-yl]imidazo[1,5-a]pyrazin-1-yl}-N-[4-(trifluoromethyl)pyridin-2-yl]benzamide]
< 10 | – | CC1(C(=O)N2CCC[C@@H](c3nc(-c4ccc(C(=O)Nc5cc(C(F)(F)F)ccn5)cc4)c4c(N)ncc(CO)n34)C2)COC1 [Example 471, 4-[8-amino-5-(hydroxymethyl)-3-{(3R)-1-[(3-methyloxetan-3-yl)carbonyl]piperidin-3-yl}imidazo[1,5-a]pyrazin-1-yl]-N-[4-(trifluoromethyl)pyridin-2-yl]benzamide]
< 10 | 0.2 | C[C@H]1CC[C@@H](c2nc(-c3ccc(C(=O)Nc4cc(C(C)(F)F)ccn4)cc3)c3c(N)nccn23)CN1C(=O)C1(C)COC1 [Example 413, 4-(8-amino-3-{(3R,6S)-6-methyl-1-[(3-methyloxetan-3-yl)carbonyl]piperidin-3-yl}imidazo[1,5-a]pyrazin-1-yl)-N-[4-(1,1-difluoroethyl)pyridin-2-yl]benzamide]
< 10 | – | CCc1ccnc(NC(=O)c2ccc(-c3nn([C@@H]4CCCN(C(=O)C5(C)COC5)C4)c4ccnc(N)c34)cc2)c1 [Example 386, 4-(4-amino-1-{(3R)-1-[(3-methyloxetan-3-yl)carbonyl]piperidin-3-yl}-1H-pyrazolo[4,3-c]pyridin-3-yl)-N-(4-ethylpyridin-2-yl)benzamide]
10 to 100 | – | Nc1ncnc2c1c(-c1ccc(C(=O)Nc3cc(C(F)(F)F)ccn3)cc1)nn2[C@@H]1CCCc2[nH]ncc21 [Example 554, 4-{4-amino-1-[(4R)-4,5,6,7-tetrahydro-1H-indazol-4-yl]-1H-pyrazolo[3,4-d]pyrimidin-3-yl}-N-[4-(trifluoromethyl)pyridin-2-yl]benzamide, TFA salt]
< 10 | – | CN1CC[C@@H](C(=O)N2CCC[C@@H](c3nc(-c4ccc(C(=O)Nc5cc(C(F)(F)F)ccn5)cc4)c4c(N)nccn34)C2)C1 [Example 348, 4-(8-amino-3-[(3R)-1-{[(3R)-1-methylpyrrolidin-3-yl]carbonyl}piperidin-3-yl]imidazo[1,5-a]pyrazin-1-yl}-N-[4-(trifluoromethyl)pyridin-2-yl]benzamide]
< 10 | – | COCc1cnc(N)c2c(-c3ccc(C(=O)Nc4cc(C(F)(F)F)ccn4)cc3)nc([C@@H]3CC[C@H](C)N(C(=O)C4(C)COC4)C3)n12 [Example 450, 4-[8-amino-5-(methoxymethyl)-3-{(3R,6S)-6-methyl-1-[(3-methyloxetan-3-yl)carbonyl]piperidin-3-yl}imidazo[1,5-a]pyrazin-1-yl]-N-[4-(trifluoromethyl)pyridin-2-yl]benzamide]
< 10 | – | COc1ccnc(NC(=O)c2ccc(-c3nc([C@@H]4CCCN(C(=O)C5(C)COC5)C4)n4c(Cl)cnc(N)c34)cc2)c1 [Example 444, 4-(8-amino-5-chloro-3-{(3R)-1-[(3-methyloxetan-3-yl)carbonyl]piperidin-3-yl}imidazo[1,5-a]pyrazin-1-yl)-N-(4-methoxypyridin-2-yl)benzamide]
< 10 | – | CC1(CN2CCO[C@@H](c3nc(-c4ccc(C(=O)Nc5cc(C(F)(F)F)ccn5)cc4)c4c(N)nccn34)C2)COC1 [Example 507, 4-(8-amino-3-{(2R)-4-[(3-methyloxetan-3-yl)methyl]morpholin-2-yl}imidazo[1,5-a]pyrazin-1-yl)-N-[4-(trifluoromethyl)pyridin-2-yl]benzamide]
< 10 | – | Cc1cnc(N)c2c(-c3ccc(C(=O)Nc4cc(C(F)(F)F)ccn4)cc3)nc([C@@H]3CCCN(C(=O)C4(C)COC4)C3)n12 [Example 453, 4-(8-amino-5-methyl-3-{(3R)-1-[(3-methyloxetan-3-yl)carbonyl]piperidin-3-yl}imidazo[1,5-a]pyrazin-1-yl)-N-[4-(trifluoromethyl)pyridin-2-yl]benzamide]
< 10 | – | CC1(C(=O)N2CCC[C@@H](c3nc(-c4ccc(C(=O)Nc5ncc(C(C)(C)C)s5)cc4)c4c(N)nccn34)C2)COC1 [Example 369, 4-(8-amino-3-{(3R)-1-[(3-methyloxetan-3-yl)carbonyl]piperidin-3-yl}imidazo[1,5-a]pyrazin-1-yl)-N-(5-tert-butyl-1,3-thiazol-2-yl)benzamide]
< 10 | – | CC(C)N1CC(C(=O)N2CCC[C@@H](c3nc(-c4ccc(C(=O)Nc5cc(C(F)(F)F)ccn5)cc4)c4c(N)nccn34)C2)C1 [Example 329, 4-{8-amino-3-[(3R)-1-{[1-(1-methylethyl)azetidin-3-yl]carbonyl}piperidin-3-yl]imidazo[1,5-a]pyrazin-1-yl}-N-[4-(trifluoromethyl)pyridin-2-yl]benzamide]
< 10 | 0.403 | Cc1cnc(N)c2c(-c3ccc(C(=O)Nc4cc(OC5CC5)ccn4)cc3)nc([C@@H]3CCCN(C(=O)C4(C)COC4)C3)n12 [Example 456, 4-(8-amino-5-methyl-3-{(3R)-1-[(3-methyloxetan-3-yl)carbonyl]piperidin-3-yl}imidazo[1,5-a]pyrazin-1-yl)-N-[4-(cyclopropyloxy)pyridin-2-yl]benzamide]
< 10 | – | CCc1ccnc(NC(=O)c2ccc(-c3nc([C@@H]4CCCN(C(=O)C5(O)CC5)C4)n4ccnc(N)c34)cc2)c1 [Example 371, 4-(8-amino-3-{(3R)-1-[(1-hydroxycyclopropyl)carbonyl]piperidin-3-yl}imidazo[1,5-a]pyrazin-1-yl)-N-(4-ethylpyridin-2-yl)benzamide]
10 to 100 | – | COc1ccc(NC(=O)c2ccc(-c3nc([C@@H]4CCCN(C(=O)C5(C)COC5)C4)n4ccnc(N)c34)cc2)nc1 [Example 325, (R)-4-(8-amino-3-(1-(3-methyloxetane-3-carbonyl)piperidin-3-yl)imidazo[1,5-a]pyrazin-1-yl)-N-(5-methoxypyridin-2-yl)benzamide]
< 10 | – | CS(=O)(=O)CC(=O)N1CCO[C@@H](c2nc(-c3ccc(C(=O)Nc4cc(C(F)(F)F)ccn4)cc3)c3c(N)nccn23)C1 [Example 545, 4-(8-amino-3-{(2R)-4-[(methylsulfonyl)acetyl]morpholin-2-yl}imidazo[1,5-a]pyrazin-1-yl)-N-[4-(trifluoromethyl)pyridin-2-yl]benzamide]
< 10 | – | COc1ccnc(NC(=O)c2ccc(-c3nn([C@@H]4CCCN(C(=O)C5(C)COC5)C4)c4ccnc(N)c34)cc2)c1 [Example 388, 4-(4-amino-1-{(3R)-1-[(3-methyloxetan-3-yl)carbonyl]piperidin-3-yl}-1H-pyrazolo[4,3-c]pyridin-3-yl)-N-(4-methoxypyridin-2-yl)benzamide]
< 10 | 0.219 | C[C@@H](O)C(=O)N1CCC[C@@H](c2nc(-c3ccc(C(=O)Nc4cc(C(F)(F)F)ccn4)cc3)c3c(N)nccn23)C1 [Example 346, 4-(8-amino-3-{(3R)-1-[(2R)-2-hydroxypropanoyl]piperidin-3-yl}imidazo[1,5-a]pyrazin-1-yl)-N-[4-(trifluoromethyl)pyridin-2-yl]benzamide]
< 10 | – | CCC(=O)N1CCC[C@@H](c2nc(-c3ccc(C(=O)Nc4cc(C(F)(F)F)ccn4)cc3OC)c3c(N)nccn23)C1 [Example 490, 4-{8-amino-3-[(3R)-1-propanoylpiperidin-3-yl]imidazo[1,5-a]pyrazin-1-yl}-3-methoxy-N-[4-(trifluoromethyl)pyridin-2-yl]benzamide]
